These are literature values, as cited in patent US5032586A, “7-keto or hydroxy 3,5-diene steroids as inhibitors of steroid 5-alpha reductase” (SmithKline Beecham Corporation, priority 1989, dated 1991).

Each structure is given as a SMILES string.

The test system of the data set is 5-α-Reductase. The settings on record: for Type of inhibition (Reversible/Irreversible): Table 1, printed with Ki; for Ki: literature values, Table 1.

Usually Ki stands for a measure of affinity in units of concentration, obtained from inhibition or displacement. For `C=C1C[C@@H]2[C@H](CC[C@@]3(C)[C@H]2CC[C@]3(OC(C)=O)C(C)=O)[C@@]2(C)CCC(=O)C=C12` [(5)], the “Type of inhibition (Reversible/Irreversible)” value is on record as “Irreversible” and the Ki is 1250 nM. For the same compound, the “Inhibition of steroid 5-α-reductase, in words” value (literature description) is “timedependent inactivator of steroid 5-α-reductase”.

`CCN(CC)C(=O)[C@H]1CC[C@H]2[C@@H]3CC[C@H]4N(C)C(=O)CC[C@]4(C)[C@H]3CC[C@]12C` [(4)]: the “Type of inhibition (Reversible/Irreversible)” value is reported as “Reversible” and the Ki was 5 nM.
